# According to PubChem BioAssay AID2060501 (Molecular Pharmacology Branch, DTP, NCI, 2025):
# Several values for one entry are separate records, joined by “and”; a condition that tells them apart may be missing. Equal entries are not always repeated.
# System: 282377-053-R-J1-PDC complex spheroids, viability
# Assay: Anticancer human tumor 282377-053-R-J1-PDC patient-derived colon adenocarcinoma cell line growth inhibition [GQUAD]
# Settings: for viability, T/C: stronger effect = lower value
# From the text: DNA G-quadruplex Stabilizer Agents in Combinations in Complex Spheroids
# A high-throughput screen of multi-cell type tumor spheroids was designed to identify active combinations of DNA G-quadruplex stabilizer agents and targeted small molecules. Complex spheroids include a stromal component modeled by human endothelial cells (HUVEC) and fibroblasts modeled by human mesenchymal stem cells (MSCs). The concentration ranges selected for each drug and investigational agent were based upon clinically achievable concentrations if the clinical Cmax of the agent was known.
# Compounds. The drugs and investigational agents: pidnarulex (CX-5461; NSC782164), APTO-253 (NSC789042), BRACO-19 (NSC847499), peposertib (NSC802822), ceralasertib (NSC780249), elimusertib (NSC800525), camonsertib (NSC841442), AZD-1390 (NSC803789), olaparib (NSC753686), talazoparib (NSC767125), ART-558 (NSC835418), sotorasib (NSC818433), MRTX-1133 (NSC836407), SN-38 (NSC673596), topotecan (NSC609699), etoposide (NSC141540), doxorubicin (NSC123127), gemcitabine (NSC613327), 5-fluorouracil (NSC19893), paclitaxel (NSC125973), vemurafenib (NSC761431), panobinostat (NSC761190), R-306465 (JNJ-16241199; NSC773264), adavosertib (NSC754352), TP-3654 (NSC805149), carboplatin (NSC241240), KSQ-4279 (NSC840948), and staurosporine (NSC755774) were obtained from the National Cancer Institute (NCI) Developmental Therapeutics Program Chemical Repository (34). The FDA-approved anticancer drug set is available from the NCI Developmental Therapeutics Program. […] The stock solutions were prepared in dimethyl sulfoxide (DMSO, Sigma-Aldrich, St. Louis, MO, cat. D2650) at 800-fold the tested concentration and stored at -70 degrees C prior to their use. All drugs and investigational agents were tested over a range starting from a high concentration at or near the clinical Cmax and decreasing in half-log increments. If the clinical Cmax for an agent had not been determined, the highest concentration tested was 10 microM.
# 2.3 Cell Culture. All cells were maintained in an incubator at 37 degrees C and 5% CO2 with 95% humidity. The PDC lines were cultured according to standard operating procedures established by the NCI PDMR. All PDCs were thawed and cultured in Matrigel-coated flasks prepared with a working solution of 1X Ham's F-12 nutrient mix, without supplementation (Invitrogen, cat. 11765054), 100 U/mL penicillin-streptomycin (Invitrogen, cat. 15140122), and 2.5% Matrigel (Corning Inc., cat. 354248) for the first three passages. The 857933-349-R-J2-PDC line was cultured in 6C/Colon 1B media, which includes advanced DMEM/F-12 (Thermo Fisher Scientific, cat. 12634028), 10 mM HEPES (Thermo Fisher Scientific, cat. 15630080), 1X GlutaMAX supplement (Thermo Fisher Scientific, cat. 35050061), 0.1 mg/mL primocin (InvivoGen, cat. ant-pm-2), 10% defined fetal bovine serum, heat inactivated (HyClone Laboratories Inc., cat. SH30070.03HI), 50% L-WRN conditioned media (ATCC, cat. CRL-3276), 1.25 mM N-Acetyl-L-cysteine (Sigma-Aldrich, cat. A9165), 10 mM nicotinamide (Sigma-Aldrich, cat. N0636), 1X B-27 supplement (Thermo Fisher Scientific, cat. 17504044), 1X N-2 supplement (Thermo Fisher Scientific, cat. 17502048), 10 microM Y-27632 dihydrochloride (Tocris Bioscience, cat. 1254), and 50 ng/mL human EGF recombinant protein (Thermo Fisher Scientific, cat. PHG0311). The 485176-168-R4-J1-PDC line was cultured in Panc media, which includes all 6C/Colon 1B media components plus 100 ng/mL human FGF-10 (Thermo Fisher Scientific, cat. 100-26), 500 nM SB-431542 (Selleckchem, cat. S1067), and gastrin (Tocris, cat. 3006).
# […]
# [1] = curve of first compound, second compound 0.0316 µM
# [2] = curve of first compound, second compound 0.1 µM
# [3] = curve of first compound, second compound 0.316 µM
# [4] = curve of first compound, second compound 1 µM
# [5] = curve of first compound, second compound 3.16 µM
# [6] = curve of first compound, second compound 10 µM
# [7] = second compound 0.0316 µM, first compound 0.0316 µM
# [8] = second compound 0.0316 µM, first compound 0.1 µM
# [9] = second compound 0.0316 µM, first compound 0.316 µM
# [10] = second compound 0.0316 µM, first compound 1 µM
# [11] = second compound 0.0316 µM, first compound 3.16 µM
# [12] = second compound 0.0316 µM, first compound 10 µM
# [13] = second compound 0.1 µM, first compound 0.0316 µM
# [14] = second compound 0.1 µM, first compound 0.1 µM
# [15] = second compound 0.1 µM, first compound 0.316 µM
# [16] = second compound 0.1 µM, first compound 1 µM
# [17] = second compound 0.1 µM, first compound 3.16 µM
# [18] = second compound 0.1 µM, first compound 10 µM
# [19] = second compound 0.316 µM, first compound 0.0316 µM
# [20] = second compound 0.316 µM, first compound 0.1 µM
# [21] = second compound 0.316 µM, first compound 0.316 µM
# [22] = second compound 0.316 µM, first compound 1 µM
# [23] = second compound 0.316 µM, first compound 3.16 µM
# [24] = second compound 0.316 µM, first compound 10 µM
# [25] = second compound 1 µM, first compound 0.0316 µM
# [26] = second compound 1 µM, first compound 0.1 µM
# [27] = second compound 1 µM, first compound 0.316 µM
# [28] = second compound 1 µM, first compound 1 µM
# [29] = second compound 1 µM, first compound 3.16 µM
# [30] = second compound 1 µM, first compound 10 µM
# [31] = second compound 3.16 µM, first compound 0.0316 µM
# [32] = second compound 3.16 µM, first compound 0.1 µM
# [33] = second compound 3.16 µM, first compound 0.316 µM
# [34] = second compound 3.16 µM, first compound 1 µM
# [35] = second compound 3.16 µM, first compound 3.16 µM
# [36] = second compound 3.16 µM, first compound 10 µM
# [37] = second compound 10 µM, first compound 0.0316 µM
# [38] = second compound 10 µM, first compound 0.1 µM
# [39] = second compound 10 µM, first compound 0.316 µM
# [40] = second compound 10 µM, first compound 1 µM
# [41] = second compound 10 µM, first compound 3.16 µM
# [42] = second compound 10 µM, first compound 10 µM
# 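Further: spheroids exposed to compounds for 7 days before readout.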
# 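Wherever viability, T/C is given: percent of vehicle DMSO control viability with 100% = untreated-like growth.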
smiles,measurement,setting,value
C=CC(=O)N1CCN(c2nc(=O)n(-c3c(C)ccnc3C(C)C)c3nc(-c4c(O)cccc4F)c(F)cc23)C(C)C1 (stereo unspecified) + Cc1cnc(CNC(=O)c2c(=O)c3ccc(N4CCCN(C)CC4)nc3n3c2sc2ccccc23)cn1,IC50,[1],> 10000 nM
same,IC50,[2],> 10000 nM
same,IC50,[3],> 10000 nM
same,IC50,[4],> 10000 nM
same,IC50,[5],> 10000 nM
same,IC50,[6],3740 nM
same,"viability, T/C",[7],129%
same,"viability, T/C",[8],116%
same,"viability, T/C",[9],115%
same,"viability, T/C",[10],116%
same,"viability, T/C",[11],103%
same,"viability, T/C",[12],100%
same,"viability, T/C",[13],119%
same,"viability, T/C",[14],91.7%
same,"viability, T/C",[15],115%
same,"viability, T/C",[16],122%
same,"viability, T/C",[17],110%
same,"viability, T/C",[18],94.1%
same,"viability, T/C",[19],89.8%
same,"viability, T/C",[20],98.9%
same,"viability, T/C",[21],102%
same,"viability, T/C",[22],98.3%
same,"viability, T/C",[23],103%
same,"viability, T/C",[24],90.8%
same,"viability, T/C",[25],77.2%
same,"viability, T/C",[26],64.2%
same,"viability, T/C",[27],74.7%
same,"viability, T/C",[28],80.4%
same,"viability, T/C",[29],76%
same,"viability, T/C",[30],57.4%
same,"viability, T/C",[31],60.2%
same,"viability, T/C",[32],51%
same,"viability, T/C",[33],63.2%
same,"viability, T/C",[34],53.6%
same,"viability, T/C",[35],61.9%
same,"viability, T/C",[36],53.6%
same,"viability, T/C",[37],52.2%
same,"viability, T/C",[38],40.8%
same,"viability, T/C",[39],58.4%
same,"viability, T/C",[40],56.6%
same,"viability, T/C",[41],56.9%
same,"viability, T/C",[42],33%
COc1ccc([C@@H](O)c2cc(-c3ncnc4cc(N5CCOCC5)ccc34)c(F)cc2Cl)nn1,"viability, T/C",compound 0.0316 µM,86.5% and 96.3% and 89.9%
same,"viability, T/C",compound 0.1 µM,85.6% and 80.6% and 90.8%
same,"viability, T/C",compound 0.316 µM,74.5% and 109% and 86.2%
same,"viability, T/C",compound 1 µM,67.9% and 79.6% and 93.6%
same,"viability, T/C",compound 3.16 µM,68.9% and 82.5% and 101%
same,"viability, T/C",compound 10 µM,57.6% and 61.8% and 71.7%
same,IC50,curve of compound,> 10000 nM
COc1cccc2c1C(=O)c1c(O)c3c(c(O)c1C2=O)CC(O)(C(=O)CO)CC3OC1CC(N)C(O)C(C)O1 (stereo unspecified) + Cc1cnc(CNC(=O)c2c(=O)c3ccc(N4CCCN(C)CC4)nc3n3c2sc2ccccc23)cn1,IC50,[1],970 nM
same,IC50,[2],794 nM
same,IC50,[3],545 nM
same,IC50,[4],331 nM
same,IC50,[5],297 nM
same,IC50,[6],< 31.6 nM
same,"viability, T/C",[7],140%
same,"viability, T/C",[8],118%
same,"viability, T/C",[9],83.6%
same,"viability, T/C",[10],55.6%
same,"viability, T/C",[11],11.3%
same,"viability, T/C",[12],1.72%
same,"viability, T/C",[13],99.8%
same,"viability, T/C",[14],97.5%
same,"viability, T/C",[15],82%
same,"viability, T/C",[16],41.1%
same,"viability, T/C",[17],13.1%
same,"viability, T/C",[18],1.51%
same,"viability, T/C",[19],91.6%
same,"viability, T/C",[20],95.1%
same,"viability, T/C",[21],55.5%
same,"viability, T/C",[22],38.9%
same,"viability, T/C",[23],11.9%
same,"viability, T/C",[24],1%
same,"viability, T/C",[25],68.2%
same,"viability, T/C",[26],59.6%
same,"viability, T/C",[27],44.3%
same,"viability, T/C",[28],44.8%
same,"viability, T/C",[29],8.25%
same,"viability, T/C",[30],0.83%
same,"viability, T/C",[31],56.4%
same,"viability, T/C",[32],62%
same,"viability, T/C",[33],41.3%
same,"viability, T/C",[34],40.1%
same,"viability, T/C",[35],8.56%
same,"viability, T/C",[36],0.74%
same,"viability, T/C",[37],54.4%
same,"viability, T/C",[38],46.4%
same,"viability, T/C",[39],47%
same,"viability, T/C",[40],39.9%
same,"viability, T/C",[41],2.37%
same,"viability, T/C",[42],0.53%
